Tests used:
PRMT5/MEP50 = target: T1, PRMT5/MEP50 (Homo sapiens, UniProt O14744); test: PRMT5/MEP50 enzyme assay on peptide substrates (3H-SAM Flashplate); format: biochemical; conditions: PRMT5/MEP50 10 nM, H4 1-15aa peptide 100 nM, 3H-SAM 1 μM
T1 construct: Full-length human PRMT5 (NP_006100)
Source text: General materials like S-adenocylmethionine (SAM), S-adenosylhomocysteine (SAH), Tris-HCl, DTT, […] (BSA) and Tween-20 were purchased from Sigma-Aldrich. 3H-SAM and 384-well streptavidin Flashplates were purchased from Perkin Elmer. Substrates that were used were Peptide representative of human Histone 4 residues 1-15 which was purchased from Rockland antibodies and assays.
PRMT5/MEP50 Enzyme assay on Peptide Substrates.
The assays were all performed in a buffer consisting of 50 mMTris-HCl, pH 8, 1 mM DTT, 0.01% BSA, 0.01% Tween-20, prepared on the day of use. Test compounds were diluted 3-fold in assay buffer (final DMSO concentration of 1%) and added into a 384-well OptiPlate (PerkinElmer, #6007290). A cocktail (10 μL) of PRMT5/MEP50 enzyme and the peptide was added to the wells. The compounds were allowed to incubate with PRMT5/MEP50 for 30 min at room temperature, then 5 μL of ^3H-SAM was added to initiate the reaction. The final concentrations of the components were as follows: PRMT5/MEP50-10 nM, H4, 1-15aa peptide-100 nM, ^3H-SAM-1 μM. The assays were stopped by the addition of 1 mM SAH. 25 μL of the reaction from the 384-well OptiPlate was then transferred to a 384-well Flashplate and the biotinylated peptides were allowed to bind to the streptavidin surface for at least 1 h, before being washed twice with 50 mMTris-HCl, pH 8, 0.1% Tween-20. The plates were then read in a PerkinElmer Topcount plate reader to measure the quantity of ^3H-labeled peptide bound to the Flashplate surface measured as disintegrations per minute (dpm), also referred to as counts per minute (cpm).
The IC50 values were calculated using a 4-parameter variable slope fit algorithm (cpm—counts per minute, cmpd—signal in assay well, and cpmmax and cpmmin mare the respective minimum and maximum signal controls).

Z-138 cells = test: Z-138 long term proliferation assay (Cell Titer Glo); format: cell-based; conditions: Homo sapiens, 192 h; Z-138 cells, cell viability, day 8; read-out: PRMT5 Z138 GI50 Day 8 μM
Method: A compound source plate was prepared by performing ten-point 3-fold dilution in DMSO, such that the final top concentration of the compound was 10 μM, and DMSO was 0.3%. The total volume of compounds added was 20 μL. The cells were incubated for 96 h at 37° C., 5% CO2. […] The cells were re-treated with the compounds and incubated for an additional four days. Cell viability was measured on both day 4 and day 8, by adding 25 μL of Cell Titer Glo reagent to an equal volume of cell suspension. Luminescence was read on a PerkinElmer Victor3 multiplate reader. The concentration of compound inhibiting cell viability by 50% was determined using a 4-parameter, variable slope fit of the normalized dose response curves.

T1 sequence (O14744 whole entry): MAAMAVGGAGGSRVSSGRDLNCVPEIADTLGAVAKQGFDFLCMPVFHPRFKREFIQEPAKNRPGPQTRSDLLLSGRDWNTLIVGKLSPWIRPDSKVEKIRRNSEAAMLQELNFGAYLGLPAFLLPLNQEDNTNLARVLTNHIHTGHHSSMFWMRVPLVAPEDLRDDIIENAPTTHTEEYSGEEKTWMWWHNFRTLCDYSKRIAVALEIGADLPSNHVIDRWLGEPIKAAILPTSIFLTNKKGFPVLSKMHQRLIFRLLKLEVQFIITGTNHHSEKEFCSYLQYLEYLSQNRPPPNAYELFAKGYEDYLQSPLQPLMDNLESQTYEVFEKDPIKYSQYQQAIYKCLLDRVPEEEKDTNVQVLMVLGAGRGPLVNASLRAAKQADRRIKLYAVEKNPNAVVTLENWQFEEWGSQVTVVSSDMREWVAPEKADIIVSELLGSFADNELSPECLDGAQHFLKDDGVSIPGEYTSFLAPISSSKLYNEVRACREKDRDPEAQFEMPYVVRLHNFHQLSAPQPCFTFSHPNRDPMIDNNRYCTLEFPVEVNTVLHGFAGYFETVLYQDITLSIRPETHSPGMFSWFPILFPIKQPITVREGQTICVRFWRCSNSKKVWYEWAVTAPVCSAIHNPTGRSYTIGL
T1 sequence (Q9BQA1 whole entry partner): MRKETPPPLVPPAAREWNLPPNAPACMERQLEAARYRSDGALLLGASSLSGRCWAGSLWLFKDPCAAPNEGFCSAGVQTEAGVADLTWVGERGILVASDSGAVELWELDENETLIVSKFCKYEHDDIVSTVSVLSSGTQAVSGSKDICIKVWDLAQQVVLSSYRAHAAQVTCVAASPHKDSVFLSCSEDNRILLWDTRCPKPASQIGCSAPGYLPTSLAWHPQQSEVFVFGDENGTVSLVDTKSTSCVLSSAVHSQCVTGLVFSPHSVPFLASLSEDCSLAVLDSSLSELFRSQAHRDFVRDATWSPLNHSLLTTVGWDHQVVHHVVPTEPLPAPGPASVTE

Row | SMILES | IC50 (PRMT5/MEP50) [nM] | GI50 (Z-138 cells) [nM]
1 | O=C(NCC(O)CN1CCc2ccccc2C1)c1cn2c(n1)CCCC2 (stereo not drawn) [Example 101, N-(3-(3,4-dihydroisoquinolin-2(1H)-yl)-2-hydroxypropyl)-5,6,7,8-tetrahydroimidazo[1,2-a]pyridine-2-carboxamide] | 1000 to 5000 | > 5000
2 | Cn1ccc(-c2ccn3nc(C(=O)NC[C@H](O)CN4CCc5ccccc5C4)cc3n2)cc1=O [Example 63, (S)—N-(3-(3,4-dihydroisoquinolin-2(1H)-yl)-2-hydroxypropyl)-5-(1-methyl-2-oxo-1,2-dihydropyridin-4-yl)pyrazolo[1,5-a]pyrimidine-2-carboxamide] | 10 to 1000 | 1000 to 5000
3 | Cn1ccc(-c2ccc3nc(C(=O)NC[C@H](O)[C@@H](O)CN4CCc5ccccc5C4)cn3c2)cc1=O [Example 80, N-((2S,3S)-4-(3,4-dihydroisoquinolin-2(1H)-yl)-2,3-dihydroxybutyl)-6-(1-methyl-2-oxo-1,2-dihydropyridin-4-yl)imidazo[1,2-a]pyridine-2-carboxamide] | 10 to 1000 | 10 to 1000
4 | Cc1ccc(-c2ccc3nc(C(=O)NC[C@H](O)CN4CCc5ccccc5C4)cn3c2)cn1 [Example 29, (S)—N-(3-(3,4-dihydroisoquinolin-2(1H)-yl)-2-hydroxypropyl)-6-(6-methylpyridin-3-yl)imidazo[1,2-a]pyridine-2-carboxamide] | 10 to 1000 | 10 to 1000
5 | Cc1ncc(-c2ccc3nc(C(=O)NC[C@H](O)CN4CCc5ccccc5C4)cn3c2)s1 [Example 31, (S)—N-(3-(3,4-dihydroisoquinolin-2(1H)-yl)-2-hydroxypropyl)-6-(2-methylthiazol-5-yl)imidazo[1,2-a]pyridine-2-carboxamide] | 10 to 1000 | 10 to 1000
6 | Cc1ccc(-c2ccc3nc(C(=O)NC[C@H](O)CN4CCc5ccccc5C4)cn3c2)nn1 [Example 30, (S)—N-(3-(3,4-dihydroisoquinolin-2(1H)-yl)-2-hydroxypropyl)-6-(6-methylpyridazin-3-yl)imidazo[1,2-a]pyridine-2-carboxamide] | 10 to 1000 | 10 to 1000
7 | Cc1nc(-c2ccc3nc(C(=O)NC[C@H](O)[C@@H](O)CN4CCc5ccccc5C4)cn3c2)no1 [Example 78, N-((2S,3S)-4-(3,4-dihydroisoquinolin-2(1H)-yl)-2,3-dihydroxybutyl)-6-(5-methyl-1,2,4-oxadiazol-3-yl)imidazo[1,2-a]pyridine-2-carboxamide] | 10 to 1000 | 10 to 1000
8 | Cn1cc([C@H]2CCc3nc(C(=O)NC[C@H](O)CN4CCc5ccccc5C4)cn3C2)cn1 [Example 120A, (R)—N—((S)-3-(3,4-dihydroisoquinolin-2(1H)-yl)-2-hydroxypropyl)-6-(1-methyl-1H-pyrazol-4-yl)-5,6,7,8-tetrahydroimidazo[1,2-a]pyridine-2-carboxamide] | 10 to 1000 | 10 to 1000
9 | O=C(NC[C@H](O)CN1CCc2ccccc2C1)c1cn2cc(N3CCC(F)C3)ccc2n1 (stereo partly drawn) [Example 70, N—((S)-3-(3,4-dihydroisoquinolin-2(1H)-yl)-2-hydroxypropyl)-6-(3-fluoropyrrolidin-1-yl)imidazo[1,2-a]pyridine-2-carboxamide] | 10 to 1000 | 1000 to 5000
10 | Cn1cc(-c2ccc3nc(C(=O)NC[C@H](O)[C@@H](O)CN4CCc5ccccc5C4)cn3c2)cn1 [Example 81, N-((2S,3S)-4-(3,4-dihydroisoquinolin-2(1H)-yl)-2,3-dihydroxybutyl)-6-(1-methyl-1H-pyrazol-4-yl)imidazo[1,2-a]pyridine-2-carboxamide] | 10 to 1000 | 10 to 1000
11 | CN(C[C@H](O)CN1CCc2ccccc2C1)C(=O)c1cn2cc(C(F)(F)F)ncc2n1 [Example 89, (R)—N-(3-(3,4-dihydroisoquinolin-2(1H)-yl)-2-hydroxypropyl)-N-methyl-6-(trifluoromethyl)imidazo[1,2-a]pyrazine-2-carboxamide] | 10 to 1000 | 10 to 1000
12 | Cn1ccc(-c2ccc3nc(C(=O)NCC(O)CNC4Cc5ccccc5C4)cn3c2)cc1=O (stereo not drawn) [Example 99, N-(3-((2,3-dihydro-1H-inden-2-yl)amino)-2-hydroxypropyl)-6-(1-methyl-2-oxo-1,2-dihydropyridin-4-yl)imidazo[1,2-a]pyridine-2-carboxamide] | 10 to 1000 | 10 to 1000
13 | Cc1nc(-c2ccc3nc(C(=O)NC[C@H](O)CN4CCc5ccccc5C4)cn3c2)sc1C [Example 32, (S)—N-(3-(3,4-dihydroisoquinolin-2(1H)-yl)-2-hydroxypropyl)-6-(4,5-dimethylthiazol-2-yl)imidazo[1,2-a]pyridine-2-carboxamide] | 10 to 1000 | 10 to 1000
14 | O=C(NC[C@H](O)CN1CCc2cc(F)ccc2C1)c1cn2cc(C(F)(F)F)ncc2n1 [Example 84, (S)—N-(3-(6-fluoro-3,4-dihydroisoquinolin-2(1H)-yl)-2-hydroxypropyl)-6-(trifluoromethyl)imidazo[1,2-a]pyrazine-2-carboxamide] | 1000 to 5000 | 1000 to 5000
15 | O=C(NC[C@H](O)[C@@H](O)CN1CCc2ccccc2C1)c1cn2cc(-c3cnn([C@@H]4CCOC4)c3)ccc2n1 [Example 79, N-((2S,3S)-4-(3,4-dihydroisoquinolin-2(1H)-yl)-2,3-dihydroxybutyl)-6-(1-((R)-tetrahydrofuran-3-yl)-1H-pyrazol-4-yl)imidazo[1,2-a]pyridine-2-carboxamide] | 10 to 1000 | 10 to 1000
16 | O=C(NC[C@H](O)CN1CCc2ccccc2C1)c1cc2nc(C(F)(F)F)ccn2n1 [Example 60, (S)—N-(3-(3,4-dihydroisoquinolin-2(1H)-yl)-2-hydroxypropyl)-5-(trifluoromethyl)pyrazolo[1,5-a]pyrimidine-2-carboxamide] | 1000 to 5000 | 1000 to 5000
17 | O=C(NC[C@H](O)CN1CCc2ccccc2C1)c1nn2ccc(C(F)(F)F)nc2c1F [Example 68, (S)—N-(3-(3,4-dihydroisoquinolin-2(1H)-yl)-2-hydroxypropyl)-3-fluoro-5-(trifluoromethyl)pyrazolo[1,5-a]pyrimidine-2-carboxamide] | > 5000 | > 5000
18 | O=C(NC[C@H](O)CN1CCc2ccccc2C1)c1cn2cc(C3CCOCC3)ccc2n1 [Example 26, (S)—N-(3-(3,4-dihydroisoquinolin-2(1H)-yl)-2-hydroxypropyl)-6-(tetrahydro-2H-pyran-4-yl)imidazo[1,2-a]pyridine-2-carboxamide] | 10 to 1000 | 10 to 1000
19 | Cn1cc(-c2ccn3nc(C(=O)NC[C@H](O)CN4CCc5ccccc5C4)cc3n2)cn1 [Example 62, (S)—N-(3-(3,4-dihydroisoquinolin-2(1H)-yl)-2-hydroxypropyl)-5-(1-methyl-1H-pyrazol-4-yl)pyrazolo[1,5-a]pyrimidine-2-carboxamide] | 1000 to 5000 | 1000 to 5000
20 | CN1CCN(c2ccc3nc(C(=O)NC[C@H](O)CN4CCc5ccccc5C4)cn3c2)CC1 [Example 71, (S)—N-(3-(3,4-dihydroisoquinolin-2(1H)-yl)-2-hydroxypropyl)-6-(4-methylpiperazin-1-yl)imidazo[1,2-a]pyridine-2-carboxamide] | 10 to 1000 | 1000 to 5000
21 | Cc1ncc(-c2ccc3nc(C(=O)NC[C@H](O)CN4CCc5ccccc5C4)cn3c2)cn1 [Example 28, (S)—N-(3-(3,4-dihydroisoquinolin-2(1H)-yl)-2-hydroxypropyl)-6-(2-methylpyrimidin-5-yl)imidazo[1,2-a]pyridine-2-carboxamide] | 10 to 1000 | 10 to 1000

— US11459338B2, “Heterocyclic compounds as PRMT5 inhibitors” (JUBILANT EPISCRIBE LLC, priority 2018, dated 2022)
